Laboratory results published in patent US20210009959A1, “METHODS FOR ENHANCING OSTEOGENIC DIFFERENTIATION USING VITAMIN D” (priority 2019, published 2021).

Legend:
[1] = tested on: human adipose stem cells (hASCs); assay: Osteogenic gene expression of hASCs seeded on BCP20/80 scaffold; assay type: cell-based; conditions: for RUNX2 gene expression, increase: 30 min incubation
Experimental: In one embodiment, a method of static culture of hASCs by pre-treatment with vitamin D3 (calcitriol) and attachment of hASCs to the scaffold used in one-step surgical procedure comprises the following steps. At one step, isolating hASCs as explained in FIG. 1. In an embodiment, the hASCs from three donors at passage 3 are used for further processing. As an optional step, the obtained hASCs are either or not incubated for a period of about 30 mins with low concentrated calcitriol of about 10 nM at room temperature.
At next step, the calcitriol treated hASCs are washed twice with Phosphate Buffered Saline (PBS) to remove calcitriol. Further, the washed hASCs are centrifuged and resuspended in Dulbecco's Minimum Essential Medium (DMEM) without any supplements. At another step, the resuspended cells are seeded on the scaffold and allowed to attach to the scaffolds for a period of about 30 minutes. At next step, the scaffolds with attached cells are transferred to 12-well plates with Costar® Transwell® containers (Corning Life Sciences, Lowell, Mass., USA) containing expansion medium (DMEM) supplemented with 10% Fetal Clone I (FCI), antibiotics (1% penicillin/streptomycin/fungizone (PSF)), 50 μM ascorbic acid (Merck, Darmstadt, Germany), and 10 mM β-glycerol phosphate (Merck, Darmstadt, Germany) (PLGA/β-TCP). At next step, the hASCs seeded scaffolds are incubated at 5% CO2 in a humidified incubator at predefined temperature of about 37° C. for a period of about 3 weeks.
Referring to FIGS. 8A to 8I, the effects of short and long calcitriol treatment on osteogenic gene expression of hASCs is disclosed, where hASCs are seeded in BCP scaffold. The stimulatory effect of 30 min calcitriol on osteogenic gene expression in hASCs seeded on BCP20/80 at day 21 is more noticeable than continuous calcitriol treatment. The 30 mins incubation with calcitriol increases the RUNX2 (early osteogenic marker) gene expression in hASCs by 3.6-fold after 2 weeks, and 5.7-fold after 3 weeks of culture compared to non-treated hASCs. FIGS. 8A to 8I exemplarily illustrate the effects of calcitriol treatment on osteogenic gene expression of hASCs.
The 30 minutes pre-treatment of hASCs with calcitriol increases VEGF189 gene expression, whereas in continuous calcitriol treatment, the VEGF189 gene expression reaches almost steady expression levels during the 3 weeks of culture. The VEGF189 gene expression in 30 minutes calcitriol pre-treated hASCs is increased by 1.5-fold at day 21, but it is decreased in continuous treatment by 0.6-fold compared to non-treated hASCs as shown in FIG. 8I.

[2] = tested on: human adipose stem cells (hASCs); assay: Osteogenic and angiogenic gene expression of hASCs in 3D PLGA/β-TCP scaffold, dynamic and static culture; assay type: cell-based
Experimental: In one embodiment, dynamic culture of pre-treated hASCs with calcitriol, using the modified perfusion bioreactor comprises the following steps. In one embodiment, the scaffolds are 3D PLGA/β-TCP. The modified perfusion bioreactor […] comprises five scaffolds, loaded with a total of 70 ml of culture medium as shown in FIG. 2. At another step, 30 ml of the culture medium is replaced twice a week for a total period of two weeks. At another step, the culture medium in the modified perfusion bioreactor 200 is distributed to the five scaffolds with the flow rate of about 5 ml/min using the peristaltic pump 202.
In one embodiment, the method of static culture of pre-treated hASCs is continued in a flask bioreactor with the same volume of culture medium utilized in the dynamic culture. Further, the methods of culturing the hASCs are divided into different groups. In one embodiment, the methods of culturing of hASCs are divided into four groups such as, static culture of non-treated hASCs, static culture of pre-treated hASCs with calcitriol, dynamic culture of non-treated hASCs and dynamic culture of pre-treated hASCs with calcitriol.
Referring to FIGS. 11A to 11I, the effects of perfusion culture of hASCs on osteogenic and angiogenic differentiation of hASCs are disclosed, where the hASCs are seeded in 3D PLGA/β-TCP scaffold. In one embodiment, the hASCs are pre-treated with or without 10 nM of calcitriol for 30 minutes and cultured in the modified perfusion bioreactor (dynamic culture) and flask bioreactor (static culture).

[3] = continuous treatment, 3 weeks of culture
[4] = 14 days, perfusion culture of pre-treated vs perfusion culture of non-treated hASCs
[5] = 14 days, perfusion culture of pre-treated vs static culture of pre-treated hASCs
[6] = day 7, dynamic culture of pre-treated vs perfusion culture of non-treated hASCs
[7] = day 7, dynamic culture of pre-treated vs static culture of treated hASC

SMILES: C=C1/C(=C\C=C2/CCC[C@]3(C)[C@@H]([C@H](C)CCCC(C)(C)O)CC[C@@H]23)C[C@@H](O)C[C@@H]1O [calcitriol, 1,25-dihydroxyvitamin D3]
- ALP gene expression ([1]; 30 min calcitriol, BCP20/80): upregulates
- RUNX2 gene expression, increase ([1]; after 2 weeks, vs non-treated hASCs): 3.6 fold
- RUNX2 gene expression, increase ([1]; after 3 weeks, vs non-treated hASCs): 5.7 fold
- CYP24 gene expression ([1]; 30 min pre-treated cells): not expressed
- Ki-67 gene expression ([1]; 30 min pre-treatment, 3 weeks of culture): decreases
- VDR gene expression ([1]; 30 min pre-treatment, compared to continuous treatment, maximal stimulation at day 14): increases
- SPARC expression, increase ([1]; 30 min pre-treatment, day 14): 2.1 fold
- VEGF189 gene expression, increase ([1]; 30 min pre-treatment, day 21, vs non-treated hASCs): 1.5 fold
- OPN expression ([1]; 30 min treatment, day 21): increases
- CYP24 gene expression [1, 3]: remarkably increases
- Ki-67 gene expression [1, 3]: no change
- RUNX2 expression, decrease ([1]; continuous treatment, after 2 weeks): 0.81 fold
- RUNX2 expression, increase ([1]; continuous treatment, after 3 weeks): 2.4 fold
- OPN gene expression ([1]; continuous treatment, day 4): upregulates
- SPARC expression, decrease ([1]; continuous treatment, day 14): 0.8 fold
- VEGF189 gene expression, decrease ([1]; continuous treatment, day 21, vs non-treated hASCs): 0.6 fold
- DMP1 gene expression ([1]; over about 3 weeks, treatment group not specified): gradual and insignificant increase
- CYP27B1 gene expression, increase [2, 4]: 5.3 fold
- Endotelin-1 gene expression, increase [2, 4]: 4 fold
- Ki-67 gene expression, increase [2, 4]: 1.8 fold
- OCN gene expression, increase [2, 4]: 2.1 fold
- RUNX2 gene expression, increase [2, 4]: 6.4 fold
- SPARC gene expression, increase [2, 4]: 2.8 fold
- VEGF165 gene expression, increase [2, 4]: 3.1 fold
- VEGF189 gene expression, increase [2, 4]: 2.5 fold
- CYP27B1 gene expression, increase [2, 5]: 15.4 fold
- Endotelin-1 gene expression, increase [2, 5]: 35 fold
- Ki-67 gene expression, increase [2, 5]: 5.1 fold
- OCN gene expression, increase [2, 5]: 4.1 fold
- OPN gene expression, increase [2, 5]: 60 fold
- RUNX2 gene expression, increase [2, 5]: 82.8 fold
- SPARC gene expression, increase [2, 5]: 33.2 fold
- VEGF165 gene expression, increase [2, 5]: 1.4 fold
- VEGF189 gene expression, increase [2, 5]: 5.7 fold
- OPN gene expression (level) ([2]; day 7, dynamic culture of pre-treated hASC): 0.1084
- Endotelin-1 gene expression, increase [2, 6]: 120.9 fold
- Ki-67 gene expression, increase [2, 6]: 45.9 fold
- OCN gene expression, increase [2, 6]: 1.8 fold
- RUNX2 gene expression, increase [2, 6]: 186.5 fold
- SPARC gene expression, increase [2, 6]: 3 fold
- VEGF165 gene expression, increase [2, 6]: 3 fold
- VEGF189 gene expression, increase [2, 6]: 3.4 fold
- Endotelin-1 gene expression, increase [2, 7]: 5.4 fold
- OCN gene expression, increase [2, 7]: 7.1 fold
- OPN gene expression, increase [2, 7]: 47.3 fold
- SPARC gene expression, increase [2, 7]: 7.5 fold
- VEGF165 gene expression, increase [2, 7]: 9.8 fold
- VEGF189 gene expression, increase [2, 7]: 8.8 fold
- OPN gene expression (level) ([2]; day 7, static culture of treated hASC): 0.002291
